Results taken from PubChem BioAssay (NCI).
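96-well plates; 48 h exposure; 5 concentrations. Endpoints by linear interpolation between flanking doses. Not reached: highest tested concentration assigned. TGI is the concentration that stops growth completely.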

How the values were obtained:
Experiment in all cases: NCI anticancer screen, dose series, 48 h
[1] = system: NCI-H23 lung
[2] = system: SF-295 CNS
[3] = system: SNB-75 CNS
[4] = system: SN12C renal
[5] = system: UACC-62 melanoma
[6] = system: K-562 leukemia
[7] = system: SF-268 CNS
[8] = system: OVCAR-3 ovarian
[9] = system: RXF 393 renal
[10] = system: HL-60(TB) leukemia
[11] = system: COLO 205 colon
[12] = system: HT29 colon
[13] = system: HOP-62 NSCLC
[14] = system: MALME-3M melanoma
[15] = system: SK-MEL-2 melanoma
[16] = system: SK-MEL-5 melanoma
[17] = system: KM12 colon
[18] = system: NCI-H460 lung
[19] = system: A498 renal
[20] = system: U251 CNS

SMILES	TGI [1] [µM]	TGI [2] [µM]	TGI [3] [µM]	TGI [4] [µM]	TGI [5] [µM]	TGI [6] [µM]	TGI [7] [µM]	TGI [8] [µM]	TGI [9] [µM]	TGI [10] [µM]	TGI [11] [µM]	TGI [12] [µM]	TGI [13] [µM]	TGI [14] [µM]	TGI [15] [µM]	TGI [16] [µM]	TGI [17] [µM]	TGI [18] [µM]	TGI [19] [µM]	TGI [20] [µM]
CC(=O)O/C(=C1\C[C@H]2[C@@H]3CC=C4C[C@@H](OC(C)=O)CC[C@]4(C)[C@H]3CC[C@]2(C)C1=O)C(F)(F)F	18.3	35.9	47.4	24.1	20.2	15.1	19.9	21.2	15	13.6	25.7	29.2	32.8	9.53	17.2	14.4	31.8	18.3	45.1	17.7
COc1cc(N=Nc2cccc(S(=O)(=O)O)c2)ccc1N=Nc1ccc(/C=C/c2ccc(-n3on3-c3ccc(/C=C/c4ccc(N=Nc5ccc(N=Nc6cccc(S(=O)(=O)O)c6)cc5OC)cc4S(=O)(=O)O)c(S(=O)(=O)O)c3)cc2S(=O)(=O)O)c(S(=O)(=O)O)c1	> 100	> 100	> 100	> 100	> 100	> 100	> 100	> 100	> 100	> 100	> 100	> 100	> 100	> 100	> 100	> 100	> 100	> 100	> 100	> 100
N#CC(OC1OC(COC2OC(CO)C(O)C(O)C2O)C(O)C(O)C1O)c1ccccc1 (stereo not given)	> 225	> 225	> 225	> 225	> 225	> 225	> 225	> 225	> 225	> 225	> 225	> 225	> 225	> 225	> 225	> 225	> 225	> 225	> 225	> 225
CN1C(=O)CSC1=S	> 100	> 100	> 100	> 100	> 100	> 100	> 100	> 100	> 100	> 100	> 100	> 100	> 100	> 100	> 100	> 100	> 100	> 100	> 100	> 100
COc1cccc2cc(C(=O)O)c(=O)oc12	> 100	> 100	> 100	> 100	> 100	> 100	> 100	> 100	> 100	> 100	> 100	> 100	> 100	> 100	> 100	> 100	> 100	> 100	> 100	> 100
O=C(O)C1C2C=CC(C2)C1c1ccccc1 (stereo not given)	> 100	> 100	> 100	> 100	> 100	> 100	> 100	> 100	> 100	> 100	> 100	> 100	> 100	> 100	> 100	> 100	> 100	> 100	> 100	> 100
